Reference: patent publication US20090117215A1, “EXTRACT OF CERATONIA SILIQUA LEAVES AND PODS CONTAINING POLYPHENOLS WITH ANTIOXIDANT AND ANTITUMOR ACTIVITIES” (priority 2001, published 2009)

Experiments:
[1] = system: T1 cells (liver tumour cells); assay: Cell proliferation assay (MTS) in T1 hepatic tumour cells; type: cell-based, mice; conditions: for concentration at which proliferation is already inhibited / concentration reaching the peak activity (inhibition of proliferation): hepatic tumour cell cultures (T1), 24 and 48 hours exposure; for inhibition of cell proliferation in liver tumour cells: FIG. 1, after 24 and 48 hours exposure
Protocol: (§1) Tumour cell cultures (T1) used in the tests derive from transgenic mice hepatocellular carcinoma, in which an over-expression of the c-myc and TGFα had been induced. Cells were kept in L-glutamine-free DMEM medium, HAM F 12 containing 1 mg/ml galactose, 18 mM HEPES, 5 mM Na piruvate, 30 mg/M1 proline, ITS 100×, 2 mM glutamine, 0.1% gentamicin (Sigma-Aldrich, Italy) and added with 10% FBS. Cell lines were cultured in polystyrene plates (Dasit, Italy).
T1 cells were plated in 96 wells-plates at a concentration of 10,000 cells/well and left to sediment for 4-5 hours. Cells were then incubated in EGCG or ECG at a concentration of 20, 40, 60, 80, 160 μg/ml for 24 and 48 hours. The substances were diluted in the culture medium starting from stock solutions (aqueous solution for EGCG and aqueous-ethanol solution (1:1) for ECG). Control cells were treated with solutions containing ethanol in amounts corresponding to that of the samples containing catechins. After 24 or 48 hours, the proliferation was calorimetrically measured using a specific kit (Cell Titer Aqueous Cell Proliferation Assay, Promega) which makes use of a calorimetric transformation reaction of colourless MTS (tetrazolium salt) into coloured formazan by living, proliferating cells. Formazan quantitation was carried out by spectrophotometric analysis at λ=490 nm.

[2] = system: caspase 3; assay: Evaluation of caspase 3 activation in T1 cell lysates; type: cell-based, mice; conditions: 80 μg/ml, compared with untreated cells; FIG. 2
Protocol: as §1
Caspase 3 protease activity in cells lysates was determined using a Promega kit. T1 Cells were treated with EGCG and ECG (80 μg/ml) alone or in combination with a caspase inhibitor (Z-VAD-FMK) for 24 or 48 hours. Afterwards a calorimetric substrate (DEVD-pNA) able to evidence the protease activity was added. After incubation for 4 hours at 37° C., the protease activity was determined by spectrophotometric analysis at λ=405 nm.

| Compound | concentration at which proliferation is already inhibited [1] [µg/mL] | concentration reaching the peak activity (inhibition of proliferation) [1] [µg/mL] | caspase 3 protease activity [2] | inhibition of cell proliferation in liver tumour cells [1] |
| --- | --- | --- | --- | --- |
| O=C(O[C@@H]1Cc2c(O)cc(O)cc2O[C@@H]1c1ccc(O)c(O)c1)c1cc(O)c(O)c(O)c1 [ECG, (−)-epicatechin-3-gallate] | 40 | 80 | activation | – |
| Oc1cc(O)c2c(c1)O[C@H](c1cc(O)c(O)c(O)c1)[C@H](O)C2 [EGC, epigallocatechin] | – | – | – | dose-dependent |
| O=C(O[C@@H]1Cc2c(O)cc(O)cc2O[C@@H]1c1cc(O)c(O)c(O)c1)c1cc(O)c(O)c(O)c1 [EGCG, (−)-epigallocatechin-3-gallate] | 40 | 80 | activation | dose-dependent |
